Literature values as cited in patent US20190053509A1, “NITROUS OXIDE MIXTURES AND METHODS OF USE” (Korvata Inc., priority 2015, published 2019).
Like-named read-outs stand apart in the source and are kept apart here.

Legend:
[1] = relative to nitrogen standardized to 1.0; from J Applied Physiology 1994; 76(1): 439-444
[2] = 101.3 kPa (1 atm); for Bunsen solubility coefficient in olive oil: olive oil at 22° C.; for Bunsen solubility coefficient in water: water at 0° C.

| Structure (SMILES) | RNP (Relative Narcotic Potency) [1] | Bunsen solubility coefficient in olive oil [2] | Bunsen solubility coefficient in water [2] | lipid solubility (25° C. and 36 psi) | lipid solubility (25° C. and 181 psi) |
| --- | --- | --- | --- | --- | --- |
| [Ar] [Ar, argon] | 2.3 | 0.15 L gas/L | 0.0421 L gas/L | – | – |
| [N-]=[N+]=O [Example N2O, nitrous oxide] | 39 | 3.6 L gas/L | 1.0710 L gas/L | 7.08 mg/mL | 23.14 mg/mL |
| O=O [Example O2, oxygen] | – | 0.11 L gas/L | 0.0387 L gas/L | – | – |
| [He] [He, helium] | 0.045 | 0.015 L gas/L | 0.0078 L gas/L | – | – |
| [Kr] [Kr, krypton] | 7.1 | 0.44 L gas/L | 0.0856 L gas/L | – | – |
| [Ne] [Ne, neon] | 0.3 | 0.052 L gas/L | 0.0101 L gas/L | – | – |
| [Xe] [Xe, xenon] | – | 1.9 L gas/L | 0.1920 L gas/L | – | – |
